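96-well plates; 48 h exposure; 5 concentrations. Endpoints by linear interpolation between flanking doses. Not reached: highest tested concentration assigned. GI50: concentration for 50% inhibition of growth. TGI: total growth inhibition.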
Legend:
Assay in all cases: NCI tumour cell line growth inhibition, 48 h
[1] = test system: SF-268 CNS
[2] = test system: KM12 colon
[3] = test system: OVCAR-3 ovarian
[4] = test system: NCI-H23 lung
[5] = test system: UO-31 renal
[6] = test system: NCI-H522 lung
[7] = test system: NCI/ADR-RES ovarian
[8] = test system: BT-549 breast
[9] = test system: RPMI-8226 leukemia
[10] = test system: SK-MEL-28 melanoma
[11] = test system: 786-0 renal
[12] = test system: HCT-116 colon
[13] = test system: HOP-62 NSCLC
[14] = test system: EKVX NSCLC
[15] = test system: SW-620 colon
[16] = test system: OVCAR-4 ovarian
[17] = test system: MALME-3M melanoma
[18] = test system: SK-MEL-2 melanoma
[19] = test system: MDA-MB-231 breast
[20] = test system: HOP-92 NSCLC
[21] = test system: ACHN renal
[22] = test system: SF-539 CNS
[23] = test system: SNB-19 CNS
[24] = test system: SK-MEL-5 melanoma
[25] = test system: SNB-75 CNS
[26] = test system: NCI-H460 lung
[27] = test system: MDA-MB-435
[28] = test system: MOLT-4 leukemia
[29] = test system: SR leukemia
[30] = test system: LOX IMVI melanoma
[31] = test system: SN12C renal
[32] = test system: UACC-257 melanoma
[33] = test system: COLO 205 colon
[34] = test system: HCT-15 colon
[35] = test system: OVCAR-8 ovarian
[36] = test system: IGROV1 ovarian
[37] = test system: MCF7 breast
[38] = test system: T-47D breast
[39] = test system: A498 renal
[40] = test system: NCI-H226 lung
[41] = test system: DU-145 prostate
[42] = test system: CCRF-CEM leukemia
[43] = test system: K-562 leukemia
[44] = test system: SF-295 CNS
[45] = test system: TK-10 renal
[46] = test system: M14 melanoma
[47] = test system: A549 NSCLC
[48] = test system: HT29 colon
[49] = test system: CAKI-1 renal
[50] = test system: HS 578T breast
[51] = test system: OVCAR-5 ovarian
[52] = test system: PC-3 prostate
[53] = test system: U251 CNS
[54] = test system: SK-OV-3 ovarian
[55] = test system: HL-60(TB) leukemia
[56] = test system: HCC-2998 colon
[57] = test system: UACC-62 melanoma

C/C(=C(\c1ccc(O)cc1)c1ccc(OCCN2CCCCCC2)cc1)c1ccc(Cl)cc1
GI50 [1]: 5.8 µM | TGI [1]: 12.7 µM | GI50 [2]: 3.37 µM | TGI [2]: 9.28 µM | GI50 [3]: 6.11 µM | TGI [3]: 12.1 µM | GI50 [4]: 5.52 µM | TGI [4]: 11.3 µM | GI50 [5]: 4.53 µM | TGI [5]: 9.88 µM | GI50 [6]: 7.43 µM | TGI [6]: 15 µM | GI50 [7]: 5.57 µM | TGI [7]: 11.5 µM | GI50 [8]: 6.12 µM | TGI [8]: 13 µM | GI50 [9]: 1.86 µM | TGI [9]: 31 µM | GI50 [10]: 4.94 µM | TGI [10]: 10.4 µM | GI50 [11]: 2.15 µM | TGI [11]: 8.4 µM | GI50 [12]: 2.21 µM | TGI [12]: 9.11 µM | GI50 [13]: 7.03 µM | TGI [13]: 15.7 µM | GI50 [14]: 6.67 µM | TGI [14]: 12.8 µM | GI50 [15]: 3.17 µM | TGI [15]: 9.28 µM | GI50 [16]: 4.83 µM | TGI [16]: 10.6 µM | GI50 [17]: 4.52 µM | TGI [17]: 9.89 µM | GI50 [18]: 7.59 µM | TGI [18]: 14.5 µM | GI50 [19]: 7.02 µM | TGI [19]: 13.3 µM | GI50 [20]: 2.07 µM | TGI [20]: 9.62 µM | GI50 [21]: 5.26 µM | TGI [21]: 10.8 µM | GI50 [22]: 4.67 µM | TGI [22]: 10 µM | GI50 [23]: 6.27 µM | TGI [23]: 12.3 µM | GI50 [24]: 6.48 µM | TGI [24]: 12.5 µM | GI50 [25]: 6.02 µM | TGI [25]: 12 µM | GI50 [26]: 2.2 µM | TGI [26]: 7.27 µM | GI50 [27]: 5.36 µM | TGI [27]: 11.1 µM | GI50 [28]: 1.69 µM | TGI [28]: 7.25 µM | GI50 [29]: 1.28 µM | TGI [29]: 4.7 µM | GI50 [30]: 1.66 µM | TGI [30]: 6.55 µM | GI50 [31]: 5.86 µM | TGI [31]: 11.9 µM | GI50 [32]: 7.39 µM | TGI [32]: 14.8 µM | GI50 [33]: 1.21 µM | TGI [33]: 2.99 µM | GI50 [34]: 1.26 µM | TGI [34]: 3.95 µM | GI50 [35]: 6.94 µM | TGI [35]: 13.7 µM | GI50 [36]: 5.79 µM | TGI [36]: 11.9 µM | GI50 [37]: 0.0385 µM | TGI [37]: 3.81 µM | GI50 [38]: 1.19 µM | TGI [38]: 11.1 µM | GI50 [39]: 8.32 µM | TGI [39]: 14.9 µM | GI50 [40]: 5.39 µM | TGI [40]: 12.2 µM | GI50 [41]: 7.05 µM | TGI [41]: 13.2 µM | GI50 [42]: 10.8 µM | TGI [42]: 45.8 µM | GI50 [43]: 1.32 µM | TGI [43]: 6.03 µM | GI50 [44]: 4.79 µM | TGI [44]: 10.3 µM | GI50 [45]: 6.99 µM | TGI [45]: 14 µM | GI50 [46]: 1.6 µM | TGI [46]: 6.17 µM | GI50 [47]: 6.27 µM | TGI [47]: 18.4 µM | GI50 [48]: 1.26 µM | TGI [48]: 4.59 µM | GI50 [49]: 5.39 µM | TGI [49]: 11 µM | GI50 [50]: 5.06 µM | TGI [50]: 14.1 µM | GI50 [51]: 5.78 µM | TGI [51]: 11.5 µM | GI50 [52]: 2.8 µM | TGI [52]: 11.1 µM | GI50 [53]: 3.28 µM | TGI [53]: 13.4 µM | GI50 [54]: 7.74 µM | TGI [54]: 15 µM | GI50 [55]: 5.98 µM | TGI [55]: 14.3 µM | GI50 [56]: 2.43 µM | TGI [56]: 8.05 µM | GI50 [57]: 6.35 µM | TGI [57]: 12.4 µM
